Test results: the Kinase Knowledgebase extract (Sharma et al. 2016)
pIC50: −log10 of the molar value. “And” between values parts separate entries of the source, which are not always exact repeats. Identical values can stand only once.

Target: PIK3CD (Human) (UniProt O00329)
Assay: Enzyme Assay

Chain of PIK3CD (Human) (O00329 whole entry, looked up): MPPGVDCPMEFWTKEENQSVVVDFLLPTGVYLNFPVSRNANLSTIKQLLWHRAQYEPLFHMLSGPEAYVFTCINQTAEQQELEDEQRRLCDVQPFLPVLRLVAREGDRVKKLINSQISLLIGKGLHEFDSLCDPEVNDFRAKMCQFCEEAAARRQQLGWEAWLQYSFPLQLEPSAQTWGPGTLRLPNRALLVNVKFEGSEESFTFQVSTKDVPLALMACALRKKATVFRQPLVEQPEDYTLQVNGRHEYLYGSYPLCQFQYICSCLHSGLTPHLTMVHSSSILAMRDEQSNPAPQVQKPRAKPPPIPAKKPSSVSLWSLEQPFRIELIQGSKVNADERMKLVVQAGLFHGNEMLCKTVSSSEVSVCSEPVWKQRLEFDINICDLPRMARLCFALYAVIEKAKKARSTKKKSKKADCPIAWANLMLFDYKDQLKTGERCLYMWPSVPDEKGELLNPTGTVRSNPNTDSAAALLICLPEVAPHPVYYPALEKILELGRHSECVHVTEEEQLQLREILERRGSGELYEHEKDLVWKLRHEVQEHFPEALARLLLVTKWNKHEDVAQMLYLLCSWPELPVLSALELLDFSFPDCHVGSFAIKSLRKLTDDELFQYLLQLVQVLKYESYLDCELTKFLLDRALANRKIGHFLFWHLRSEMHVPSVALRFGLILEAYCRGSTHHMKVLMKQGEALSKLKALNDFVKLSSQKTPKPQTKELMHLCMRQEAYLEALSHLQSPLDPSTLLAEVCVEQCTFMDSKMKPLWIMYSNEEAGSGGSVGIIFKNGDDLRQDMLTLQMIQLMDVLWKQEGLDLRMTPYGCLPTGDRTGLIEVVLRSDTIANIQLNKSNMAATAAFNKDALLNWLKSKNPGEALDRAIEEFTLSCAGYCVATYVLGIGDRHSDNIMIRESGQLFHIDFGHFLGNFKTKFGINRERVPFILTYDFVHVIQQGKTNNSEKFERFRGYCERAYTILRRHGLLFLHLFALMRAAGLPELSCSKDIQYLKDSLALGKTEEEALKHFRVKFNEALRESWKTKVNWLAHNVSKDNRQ

## CCn1ncc(-c2nc3c(O[C@H]4CCN(C(=O)NC(C)C)C4)ncnc3n2C)c1C
  pIC50: 8.04

## CCn1c(-c2cnc(C)c(F)c2)nc2c(O[C@H]3CCN(C(=O)C4CC4)C3)ncnc21
  pIC50: 8.37

## CCn1ncc(-c2nc3c(O[C@H]4CCN(c5nncc6ccccc56)C4)ncnc3n2C)c1C
  pIC50: 7.77

## CCn1ncc(-c2nc3c(O[C@H]4CCN(C(=O)C5CCCO5)C4)ncnc3n2C)c1C (some centres not stated)
  pIC50: 7.92

## CCn1c(-c2cnc(C)nc2)nc2c(O[C@H]3CCN(C(=O)[C@H]4C[C@H]5CC[C@@H]4C5)C3)ncnc21
  pIC50: 8.92

## CCn1ncc(-c2nc3c(O[C@H]4CCN(Cc5ccc(N(C)C)cc5)C4)ncnc3n2C)c1C
  pIC50: 5.51

## CCn1ncc(-c2nc3c(O[C@H]4CCN(C(=O)OCc5ccccc5)C4)ncnc3n2C)c1C
  pIC50: 7.85

## CCn1ncc(-c2nc3c(O[C@H]4CCN(Cc5ccc[nH]5)C4)ncnc3n2C)c1C
  pIC50: 6.36

## CCn1c(-c2cnc(N(C)C)nc2)nc2c(O[C@H]3CCN(C(=O)C4CC4)C3)ncnc21
  pIC50: 7.64

## CCn1ncc(-c2nc3c(O[C@H]4CCN(C(=O)CN5CCCC5=O)C4)ncnc3n2C)c1C
  pIC50: 6.32

## CCn1c(-c2cnc(C)nc2)nc2c(O[C@H]3C[C@@H](NC(=O)OC(C)(C)C)C3)ncnc21
  pIC50: 7.02 and 6.66

## Cc1ncc(-c2nc3c(O[C@H]4CCN(C(=O)OC(C)(C)C)C4)ncnc3n2C)cn1
  pIC50: 7.00

## CCn1c(-c2cnc(C)nc2)nc2c(O[C@H]3CCN(C(=O)OCCN(C)C)C3)ncnc21
  pIC50: 7.42

## CCn1ncc(-c2nc3c(O[C@@H]4CC[C@H](NC(=O)OC(C)(C)C)C4)ncnc3n2C)c1C
  pIC50: 6.40

## CCn1ncc(-c2nc3c(O[C@H]4CCN(C(=O)c5ccnc(C)c5)C4)ncnc3n2C)c1C
  pIC50: 7.60

## CCn1ncc(-c2nc3c(O[C@H]4CCN(C(=O)c5cnoc5C)C4)ncnc3n2C)c1C
  pIC50: 7.44

## CCn1ncc(-c2nc3c(O[C@H]4CCN(C(=O)c5coc(C)n5)C4)ncnc3n2C)c1C
  pIC50: 8.19

## Cn1c(-c2ccc3[nH]ncc3c2)nc2c(O[C@H]3CCN(C(=O)OC(C)(C)C)C3)ncnc21
  pIC50: 7.46

## CCn1ncc(-c2nc3c(O[C@H]4CCN(S(=O)(=O)c5ccccc5)C4)ncnc3n2C)c1C
  pIC50: 6.44

## CCn1c(N(C)CCO)nc2c(O[C@H]3CCN(C(=O)OC(C)(C)C)C3)ncnc21
  pIC50: 6.08

## CCC(=O)N1CC[C@H](Oc2ncnc3c2nc(-c2cnc(OC)c(F)c2)n3C)C1
  pIC50: 8.03

## Cc1cc2cccc(-c3nc4c(O[C@H]5CCN(C(=O)OC(C)(C)C)C5)ncnc4n3C)c2[nH]1
  pIC50: 6.18

## CCn1ncc(-c2nc3c(O[C@@H]4CCCN(C(=O)OC(C)(C)C)C4)ncnc3n2C)c1C
  pIC50: 5.34

## CCn1c(-c2ccc(OC(F)F)nc2)nc2c(O[C@@H]3CCN(C(=O)C4CC4)C3)ncnc21
  pIC50: 7.85

## CCn1ncc(-c2nc3c(O[C@H]4CCN(C(=O)C(C)(C)C)C4)ncnc3n2C)c1C
  pIC50: 7.66

## CN(C)c1ccc(-c2nc3c(O[C@H]4CCN(C(=O)OC(C)(C)C)C4)ncnc3n2C)cn1
  pIC50: 7.19

## CCn1ncc(-c2nc3c(OC4CN(C(=O)OC(C)(C)C)C4)ncnc3n2C)c1C
  pIC50: 7.07

## CCn1ncc(-c2nc3c(O[C@H]4CCN(S(=O)(=O)c5ccc(-c6ccccc6)cc5)C4)ncnc3n2C)c1C
  pIC50: 5.34

## CCn1c(-c2cnc(C)nc2)nc2c(O[C@H]3CC[C@@H](NC(=O)C4CC4)CC3)ncnc21
  pIC50: 6.92

## CCn1c(-c2cnc(OC)c(F)c2)nc2c(O[C@H]3CCN(C(=O)C4CC(F)(F)C4)C3)ncnc21
  pIC50: > 9.00

## CCn1ncc(-c2nc3c(O[C@H]4CCN(C(=O)c5nnc(N(C)C)o5)C4)ncnc3n2C)c1C
  pIC50: 7.17

## Cn1c(-c2cnc(C(C)(C)C)s2)nc2c(O[C@H]3CCN(C(=O)OC(C)(C)C)C3)ncnc21
  pIC50: 8.16

## CCC(=O)N1CC[C@H](Oc2ncnc3c2nc(-c2cnn(CC)c2C)n3C)C1
  pIC50: 7.92

## CCn1ncc(-c2nc3c(O[C@H]4CCNC4)ncnc3n2C)c1C
  pIC50: 5.68

## CCn1c(-c2ccc(OC)cn2)nc2c(O[C@H]3CCN(C(=O)C4CC4)C3)ncnc21
  pIC50: 6.62

## CCn1c(N2CCC(S(C)(=O)=O)C2)nc2c(O[C@H]3CCN(C(=O)OC(C)(C)C)C3)ncnc21 (some centres not stated)
  pIC50: 6.15

## CCC(=O)N1CC[C@H](Oc2ncnc3c2nc(-c2cnn4c2CCC4)n3C)C1
  pIC50: 7.64

## CCn1ncc(-c2nc3c(O[C@H]4CCN(C(=O)c5ccc(N6CCN(C)CC6)cc5)C4)ncnc3n2C)c1C
  pIC50: 6.96

## CCn1c(-c2cnc(OC)c(NS(C)(=O)=O)c2)nc2c(O[C@H]3CCN(C(=O)C4CC4)C3)ncnc21
  pIC50: > 9.00

## CCn1ncc(-c2nc3c(O[C@H]4CCN(C(=O)c5cn(C)nc5C(F)(F)F)C4)ncnc3n2C)c1C
  pIC50: 7.17

## CCn1ncc(-c2nc3c(O[C@H]4CCN(C(=O)C5CCc6nnnn65)C4)ncnc3n2C)c1C (some centres not stated)
  pIC50: 7.64

## CCn1ncc(-c2nc3c(O[C@H]4CCN(C(=O)c5cnn6ccccc56)C4)ncnc3n2C)c1C
  pIC50: 6.89

## CCn1c(-c2cnc(C)nc2)nc2c(O[C@H]3CCN(C(=O)[C@H]4CCC[C@H]4N)C3)ncnc21
  pIC50: 7.60

## CCn1c(N(C)CCOC)nc2c(O[C@H]3CCN(C(=O)OC(C)(C)C)C3)ncnc21
  pIC50: 6.04

## CCn1c(-c2cnc(C)nc2)nc2c(O[C@H]3CCN(c4ccccc4C)C3)ncnc21
  pIC50: 7.07

## CCn1c(-c2cnc(C(F)(F)F)nc2)nc2c(O[C@H]3CCN(C(=O)C4CC4)C3)ncnc21
  pIC50: 7.74

## Cc1n[nH]c2ncc(-c3nc4c(O[C@H]5CCN(C(=O)OC(C)(C)C)C5)ncnc4n3C)cc12
  pIC50: 8.40

## CCn1ncc(-c2nc3c(OC4CCN(C(=O)C5CCCCC5)C4)ncnc3n2C)c1C (configuration not stated)
  pIC50: 7.66

## CCn1ncc(-c2nc3c(O[C@H]4CCN(C(=O)c5c(C)nn(C)c5C)C4)ncnc3n2C)c1C
  pIC50: 7.13

## CCn1ncc(-c2nc3c(O[C@H]4CCN(C(=O)c5cc6ncccc6[nH]5)C4)ncnc3n2C)c1C
  pIC50: 5.72

## CCn1ncc(-c2nc3c(O[C@H]4CCN(C(C)c5ccccc5)C4)ncnc3n2C)c1C (some centres not stated)
  pIC50: 6.57

## CCC(=O)N1CC[C@H](Oc2ncnc3c2nc(-c2cnn(C(C)(C)C)c2)n3C)C1
  pIC50: 8.33

## CCn1c(-c2cnc(C)nc2)nc2c(O[C@H]3CCN(c4ccccc4)C3)ncnc21
  pIC50: 8.04

## CCn1c(-c2cnn3c2CCCC3)nc2c(O[C@H]3CCN(C(=O)C4CC4)C3)ncnc21
  pIC50: > 9.00

## CCn1c(-c2cnc(C)nc2)nc2c(O[C@H]3CCN(C(=O)N4CC(C)(OC)C4)C3)ncnc21
  pIC50: 7.47

## CCn1c(-c2cnc(C)nc2)nc2c(O[C@H]3C[C@H](NS(=O)(=O)CC)C3)ncnc21
  pIC50: 6.82

## CCn1c(-c2cnc(C)nc2)nc2c(O[C@H]3CCN(C(=O)C4CC(C)C4)C3)ncnc21 (some centres not stated)
  pIC50: 8.89

## CCC(=O)N1CC[C@H](Oc2ncnc3c2nc(-c2cnc(OC)c(C)c2)n3CC)C1
  pIC50: 9.30

## CCn1ncc(-c2nc3c(O[C@H]4CCN(C(=O)OC)C4)ncnc3n2C)c1C
  pIC50: 7.92

## CCC(=O)N1CC[C@H](Oc2ncnc3c2nc(C2=CCOCC2)n3CC)C1
  pIC50: 7.03

## CCn1c(-c2ccc(OC)nc2)nc2c(O[C@H]3CCN(C(=O)C4CC4)C3)ncnc21
  pIC50: 9.00

## Cn1c(-c2ccc(N3CCOCC3)nc2)nc2c(O[C@H]3CCN(C(=O)OC(C)(C)C)C3)ncnc21
  pIC50: 5.36

## CCn1ncc(-c2nc3c(OC4CCN(C(=O)c5cnco5)C4)ncnc3n2C)c1C (configuration not stated)
  pIC50: 7.77

## CCn1ncc(-c2nc3c(OC4CCN(C(=O)C5CCCC5)CC4)ncnc3n2C)c1C
  pIC50: 6.26

## CCn1c(-c2cnc(C)nc2)nc2c(O[C@H]3CCN(c4cnccn4)C3)ncnc21
  pIC50: 7.49

## CCn1c(-c2cnc(OC)c(F)c2)nc2c(O[C@H]3CCN(C(=O)C4CCOCC4)C3)ncnc21
  pIC50: > 9.00

## CCn1ncc(-c2nc3c(O[C@H]4CCN(C(=O)c5cc(C(C)C)n[nH]5)C4)ncnc3n2C)c1C
  pIC50: 6.96

## CCn1ncc(-c2nc3c(O[C@H]4CC[C@H](NC(=O)OC(C)(C)C)C4)ncnc3n2C)c1C
  pIC50: 6.85

## CCn1ncc(-c2nc3c(O[C@H]4CCN(C(=O)c5cc(C)n(C)n5)C4)ncnc3n2C)c1C
  pIC50: 6.82

## CCn1ncc(-c2nc3c(O[C@H]4CCN(c5cncc(C)n5)C4)ncnc3n2C)c1C
  pIC50: 7.59

## CCC(=O)N[C@H]1CC[C@H](Oc2ncnc3c2nc(-c2cnc(C)nc2)n3CC)CC1
  pIC50: 6.48

## CCn1ncc(-c2nc3c(O[C@H]4CCN(C(=O)c5cn[nH]c5)C4)ncnc3n2C)c1C
  pIC50: 7.80

## CCn1c(-c2ccc(OC)nc2)nc2c(O[C@H]3CCN(C(=O)C(C)C)C3)ncnc21
  pIC50: 8.68

## CCn1ncc(-c2nc3c(O[C@H]4CCN(C(=O)Oc5cccc(C(F)(F)F)c5)C4)ncnc3n2C)c1C
  pIC50: 6.52

## CCn1ncc(-c2nc3c(O[C@H]4CCN(C(=O)c5cn(C)nn5)C4)ncnc3n2C)c1C
  pIC50: 8.28

## CCn1ncc(-c2nc3c(O[C@H]4CCCN(C(=O)OC(C)(C)C)C4)ncnc3n2C)c1C
  pIC50: 7.03

## CCC(=O)N1CC[C@H](Oc2ncnc3c2nc(-c2ccc(S(C)(=O)=O)cc2)n3C)C1
  pIC50: 6.52

## CCn1ncc(-c2nc3c(OC4CCN(C(=O)c5ccccc5)C4)ncnc3n2C)c1C (configuration not stated)
  pIC50: 7.17

## CCC(=O)N1CC[C@H](Oc2ncnc3c2nc(-c2ccc(OC)nc2)n3C)C1
  pIC50: 8.00

## CCC(=O)N1CC[C@H](Oc2ncnc3c2nc(-c2cnn4c2CCCC4)n3C)C1
  pIC50: 8.62

## CCn1c(-c2cnc(C)nc2)nc2c(O[C@H]3CCN(S(=O)(=O)CC)C3)ncnc21
  pIC50: 6.77

## CCn1c(-c2cnc(C)nc2)nc2c(O[C@H]3CCN(c4cccc(F)c4)C3)ncnc21
  pIC50: 8.66

## CCn1c(-c2cnc(C)nc2)nc2c(O[C@H]3CCN(C(=O)C4(N)CCC4)C3)ncnc21
  pIC50: 7.30

## CCn1ncc(-c2nc3c(O[C@H]4CCN(C(=O)Oc5ccccc5)C4)ncnc3n2C)c1C
  pIC50: 7.05

## CCn1ncc(-c2nc3c(O[C@H]4CCN(c5nccc6sccc56)C4)ncnc3n2C)c1C
  pIC50: 8.00

## CCn1ncc(-c2nc3c(O[C@H]4CCN(C(=O)C5(C)CCOCC5)C4)ncnc3n2C)c1C
  pIC50: 7.55

## CCn1ncc(C(=O)N2CC[C@H](Oc3ncnc4c3nc(-c3cnn(CC)c3C)n4C)C2)c1C
  pIC50: 7.54

## CCn1ncc(-c2nc3c(O[C@H]4CCN(C(=O)C5CCOCC5)C4)ncnc3n2CC)c1C
  pIC50: > 9.00

## CCn1c(N2CCC(C)C2)nc2c(O[C@H]3CCN(C(=O)OC(C)(C)C)C3)ncnc21 (some centres not stated)
  pIC50: 6.24

## CCn1ncc(-c2nc3c(O[C@H]4CCN(C(=O)c5ocnc5C)C4)ncnc3n2C)c1C
  pIC50: 7.82

## CCn1ncc(-c2nc3c(O[C@H]4CCN(S(=O)(=O)CC)C4)ncnc3n2C)c1C
  pIC50: 6.70

## CCC(=O)N1CC[C@H](Sc2ncnc3c2nc(-c2cnn(CC)c2C)n3C)C1
  pIC50: 7.96
